Experimental data as given in US20200087248A1, “Fluoroallylamine Derivative And Use Thereof” (SICHUAN KELUN-BIOTECH BIOPHARMACEUTICAL CO., LTD., priority 2017, published 2020).
Structures can show the parent of a compound that is named as a salt. Where two headings read alike, the source gives them in different places.

Experiments:
[1] = Stability in liver microsomes, rat; format: in vitro ADME
Protocol: Stability of Liver Microsomes
Formulation of a compound reservation solution: the test compound, diclofenac acid, testosterone and propafenone were weighted in appropriate amounts, and calibrated by adding about 1 mL of DMSO to provide a 10 mM reservation solution, then stored in a 4° C. refrigerator;
Formulation of a compound working solution: 10 μL of the reservation solution were added to 990 μL acetonitrile-water (1:1) to provide a middle solution having a concentration of 100 μM, and 120 μL of the middle solution is further diluted with 2880 μL PBS to provide a 4 μM working solution; […]
After being incubated for a certain period of time, an equivalent volume of cooled acetonitrile (4° C.) was added to terminate the reaction, and LC-MS/MS was used to determine the concentrations of the compound after being incubated in various liver microsomes for different time periods. With the incubation time as the horizontal ordinate and the natural logarithm of the percentages of the remained compound at each time point as the longitudinal coordinate, a diagram was plotted, wherein the slope was the velocity constant (Ke), and the half-life (T1/2) and clearance rate (CLliver) of the compound were calculated according to the following equation to evaluate the staiblity of the compound in the liver microsomes. […]

[2] = target: T1, VAP-1 in abdominal fat of mice (Mus musculus, UniProt O70423); assay: Inhibition of VAP-1 enzymatic activity at different dose and time conditions (ex-vivo); format: in vivo, BALBc mice; details: for Inhibition rate against the enzymatic activity of VAP-1 in abdominal fat of mice: hydrochloride; for inhibition at 0.5 mg/kg / inhibition at 3 mg/kg: mouse, po, read-out: Inhibition rate against the enzymatic activity of VAP-1 in abdominal fat of mice
T1 construct: abdominal fat was collected and homogenized; from tissue; host or cells: abdominal fat of BALBc mice (homogenate supernatant)
T1 sequence (O70423 1-765): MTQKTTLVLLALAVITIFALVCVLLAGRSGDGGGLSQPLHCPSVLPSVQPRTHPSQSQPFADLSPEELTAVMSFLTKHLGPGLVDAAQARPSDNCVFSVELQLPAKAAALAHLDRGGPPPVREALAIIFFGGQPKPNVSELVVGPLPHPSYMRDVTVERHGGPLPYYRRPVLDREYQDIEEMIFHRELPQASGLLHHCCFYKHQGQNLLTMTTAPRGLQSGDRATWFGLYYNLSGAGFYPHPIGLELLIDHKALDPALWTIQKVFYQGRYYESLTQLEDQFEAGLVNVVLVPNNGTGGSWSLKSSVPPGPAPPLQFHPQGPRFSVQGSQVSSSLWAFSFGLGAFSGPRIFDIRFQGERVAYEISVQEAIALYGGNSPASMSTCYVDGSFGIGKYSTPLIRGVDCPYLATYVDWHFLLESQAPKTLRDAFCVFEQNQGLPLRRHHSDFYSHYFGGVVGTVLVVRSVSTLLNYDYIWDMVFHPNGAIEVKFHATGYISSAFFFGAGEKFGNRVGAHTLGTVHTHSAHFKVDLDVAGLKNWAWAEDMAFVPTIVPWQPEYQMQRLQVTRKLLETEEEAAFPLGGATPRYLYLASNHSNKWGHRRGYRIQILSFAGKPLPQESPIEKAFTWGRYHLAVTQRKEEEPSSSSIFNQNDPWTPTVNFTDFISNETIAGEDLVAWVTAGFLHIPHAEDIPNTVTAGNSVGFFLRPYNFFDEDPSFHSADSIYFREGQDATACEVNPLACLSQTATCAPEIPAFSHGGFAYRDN
Protocol: Inhibition Experiment Against the Enzymatic Activity at Different Does and Time Conditions (ex-vivo)
Tissue homogenate buffer solution (20 mM HEPES, pH 7.2, 1 mM EDTA, 250 mM sucrose, PMSF 0.2 mM)
Reaction buffer solution: 50 mM PBS, pH 7.4
Test kit: Amplex® Red Monoamine Oxidase Assay, Manufacturer: ThermoFisher
BALBc mice were orally administrated with different doses (0.5 mg/kg, 3 mg/kg) of the test compound, and the vehicle group was used as the control group. Abdominal fat was collected at 6 hrs, 10 hrs, 24 hrs respectively, and homogenized with a pre-cooled homogenate buffer solution, and thereafter, the supernatant was collected and stored for use.
A test sample was diluted with the reaction buffer solution, and respectively added with the inhibition solution A 1 μM Clorgyline+1 μM pargylin, to inhibit the activities of MAO-A and MAO-B, and the inhibition solution B: 1 μM Clorgyline+1 μM Pargylin+1 μM Mofegiline as the Wank control, and after being incubated at room temperature, 500 μM benzylamine hydrochloride, 1 U/mL HRP and 200 μM Amplex Red reagent were added to start the reaction. By referring to the method in “Experiment of inhibiting the enzymatic activity of VAP-1”, the relative activities of each dose groups were calculated, wherein ratio of the fluorescent signal to reaction time in the linear range is the reaction rate, and the vehicle group is the positive control, thereby to study the inhibition of the compound against the enzymatic activity of VAP-1 in abdominal fat of mice.

T1/2 in liver microsomes ([1]; Rat): long half-life
half-life ([1]; rat, liver microsomes, read-out: T1/2 in liver microsomes): 14.2 h
Inhibition rate against the enzymatic activity of VAP-1 in abdominal fat of mice ([2]; 0.5 mg/kg oral, 6 hours): 95.8 ± 3.6%
Inhibition rate against the enzymatic activity of VAP-1 in abdominal fat of mice ([2]; 3.0 mg/kg oral, 10 hours): 95.3 ± 1.9%
inhibition at 0.5 mg/kg ([2]; 0.5 mg/kg oral, 6 hours): ~95%
inhibition at 0.5 mg/kg ([2]; 0.5 mg/kg oral, 10 hours): 90.3 ± 3.2%
inhibition at 0.5 mg/kg ([2]; 0.5 mg/kg oral, 24 hours): 68.1 ± 7.4%
inhibition at 3 mg/kg ([2]; 3.0 mg/kg oral, 6 hours): 96.4 ± 5.6%
inhibition at 3 mg/kg ([2]; 3.0 mg/kg oral, 10 hours): ~95%
inhibition at 3 mg/kg ([2]; 3.0 mg/kg oral, 24 hours): 78 ± 9.3%
SMILES: CC1(C)Cc2cc(OC/C(=C/F)CN)ccc2C(=O)N1 [HC38-E, (E)-6-((2-(aminomethyl)-3-fluoroallyl)oxy)-3,3-dimethyl-3,4-dihydroisoquinolin-1(2H)-one hydrochloride]
